Laboratory results from publication PMC9512702 (Nature Chemical Biology, 2022).
Where a SMILES comes first, the peptide text is derived from it. [ ]: non-standard residue; d: D form. Phe(3,4-F2) = N[C@@H](Cc1ccc(F)c(F)c1)C(=O)O; Cha = N[C@@H](CC1CCCCC1)C(=O)O; Aib = CC(C)(N)C(=O)O

Assays:
[1] = biological target: SARS-CoV-2 RBD binding to immobilized ACE2 (Severe acute respiratory syndrome coronavirus 2, UniProt P0DTC2); experiment: biochemical
[2] = biological target: SARS-CoV-2 RBD (Severe acute respiratory syndrome coronavirus 2, UniProt P0DTC2); experiment: biochemical; format: binding; settings: for Kd: KD (direct binding to RBD)

Structure (SMILES) | IC50 [1] | Kd [2] | kon ([2]; read-out: ka)
CC[C@H](C)[C@H](NC(=O)[C@H](CC(C)C)NC(=O)[C@H](CC(=O)O)NC(=O)[C@H](CO)NC(=O)[C@@H](NC(=O)[C@H](CCCNC(=N)N)NC(=O)[C@H](CCSC)NC(=O)[C@H](CO)NC(=O)[C@H](C)NC(=O)[C@H](CCC(=O)O)NC(=O)C(C)(C)NC(=O)[C@H](CC(=O)O)NC(=O)[C@@H](C)NC(=O)[C@H](CC(C)C)NC(=O)[C@H](CCC(=O)O)NC(=O)[C@H](CC(=O)O)NC(=O)[C@H](CC(C)C)NC(=O)[C@H](CC(C)C)NC(=O)[C@H](CCCNC(=N)N)NC(=O)[C@H](CCSC)NC(=O)[C@@H](NC(=O)[C@H](CCC(=O)O)NC(=O)[C@H](Cc1ccc(F)c(F)c1)NC(=O)[C@@H](NC(=O)[C@H](CCCCN)NC(=O)[C@H](CCC(N)=O)NC(=O)[C@H](CC(C)C)NC(=O)[C@@H](NC(=O)[C@H](Cc1c[nH]c2ccccc12)NC(=O)[C@H](CCC(=O)O)NC(=O)[C@H](CCCCN)NC(=O)[C@@H](N)CC(=O)O)[C@@H](C)CC)[C@@H](C)CC)[C@@H](C)CC)C(C)C)C(=O)N[C@@H](Cc1ccc(O)cc1)C(=O)N[C@@H](CCC(=O)O)C(=O)N[C@@H](Cc1ccccc1)C(=O)N[C@@H](CCSC)C(=O)N[C@@H](CCCCN)C(=O)N[C@@H](CCCCN)C(N)=O [SIH-7] (H-DKEWILQKI[Phe(3,4-F2)]EIMRLLDEL[dA]D[Aib]EASMRVSDLIYEFMKK-NH2) | 125 to 250 nM | 2.9 nM | 
CC[C@H](C)[C@H](NC(=O)[C@H](CC(C)C)NC(=O)[C@H](CC(=O)O)NC(=O)[C@H](CO)NC(=O)[C@@H](NC(=O)[C@H](CCCNC(=N)N)NC(=O)[C@H](CCSC)NC(=O)[C@H](CO)NC(=O)[C@H](C)NC(=O)[C@H](CCC(=O)O)NC(=O)C(C)(C)NC(=O)[C@H](CC(=O)O)NC(=O)[C@@H](C)NC(=O)[C@H](CC(C)C)NC(=O)[C@H](CCC(=O)O)NC(=O)[C@H](CC(=O)O)NC(=O)[C@H](CC(C)C)NC(=O)[C@H](CC(C)C)NC(=O)[C@H](CCCNC(=N)N)NC(=O)[C@H](CCSC)NC(=O)[C@@H](NC(=O)[C@H](CCC(=O)O)NC(=O)[C@H](Cc1ccc(F)c(F)c1)NC(=O)[C@@H](NC(=O)[C@H](CCCCN)NC(=O)[C@H](CCC(N)=O)NC(=O)[C@H](CC(C)C)NC(=O)[C@@H](NC(=O)[C@H](Cc1c[nH]c2ccccc12)NC(=O)[C@H](CCC(=O)O)NC(=O)[C@H](CCCCN)NC(=O)[C@@H](N)CC(=O)O)[C@@H](C)CC)[C@@H](C)CC)[C@@H](C)CC)C(C)C)C(=O)N[C@@H](Cc1ccc(O)cc1)C(=O)N[C@@H](CCC(=O)O)C(=O)N[C@@H](CC1CCCCC1)C(=O)N[C@@H](CCSC)C(=O)N[C@@H](CCCCN)C(=O)N[C@@H](CCCCN)C(N)=O [SIH-13] (H-DKEWILQKI[Phe(3,4-F2)]EIMRLLDEL[dA]D[Aib]EASMRVSDLIYE[Cha]MKK-NH2) | 125 to 250 nM | 1.6 nM | 
CC[C@H](C)[C@H](NC(=O)[C@H](C)NC(=O)[C@H](CC(=O)O)NC(=O)[C@H](CO)NC(=O)[C@@H](NC(=O)[C@H](CCCNC(=N)N)NC(=O)[C@H](CCSC)NC(=O)[C@H](CO)NC(=O)[C@H](C)NC(=O)[C@H](CCC(=O)O)NC(=O)C(C)(C)NC(=O)[C@H](CC(=O)O)NC(=O)[C@@H](C)NC(=O)[C@H](CC(C)C)NC(=O)[C@H](CCC(=O)O)NC(=O)[C@H](CC(=O)O)NC(=O)[C@H](CC(C)C)NC(=O)[C@H](CC(C)C)NC(=O)[C@H](CCCNC(=N)N)NC(=O)[C@H](CCSC)NC(=O)[C@H](C)NC(=O)[C@H](CCC(=O)O)NC(=O)[C@H](Cc1ccc(O)cc1)NC(=O)[C@@H](NC(=O)[C@H](CCCCN)NC(=O)[C@H](CCC(N)=O)NC(=O)[C@H](CC(C)C)NC(=O)[C@@H](NC(=O)[C@H](Cc1c[nH]c2ccccc12)NC(=O)[C@H](CCC(=O)O)NC(=O)[C@H](CCCCN)NC(=O)[C@@H](N)CC(=O)O)[C@@H](C)CC)[C@@H](C)CC)C(C)C)C(=O)N[C@@H](Cc1ccc(O)cc1)C(=O)N[C@@H](CCC(=O)O)C(=O)N[C@@H](Cc1ccccc1)C(=O)N[C@@H](CCSC)C(=O)N[C@@H](CCCCN)C(=O)N[C@@H](CCCCN)C(N)=O [SIH-14] (H-DKEWILQKIYEAMRLLDEL[dA]D[Aib]EASMRVSDAIYEFMKK-NH2) | 250 to 500 nM | 3 nM | 90000 M⁻¹ s⁻¹
